According to patent US20250134867A1, “METHOD FOR MODULATING LIPID METABOLISM, AMELIORATING NON-ALCOHOLIC FATTY LIVER DISEASE AND METABOLIC SYNDROME BY USING 6-METHOXYBENZOXAZOLINONE” (Taichung District Agricultural Research and Extension …, priority 2023, published 2025):

What was measured:
[1] = system: HFD-induced obese C57BL/6J mice; assay: Fasting blood glucose, IPGTT and insulin resistance in HFD-induced obese mice; format: in vivo; details: for insulin resistance index HOMA-IR / fasting insulin concentration (insulin expression): 12 weeks; for insulin resistance index HOMA-IR: compared with the HFD group; for fasting insulin concentration (insulin expression): serum; for fasting blood glucose: since the second week, 16 h fasting; for AUC of IPGTT: week 12, glucose 1.0 g/kg i.p., vs HFD group
Source text: The animals used in the examples are described below. 5-week-old male C57BL/6J mice were purchased from The National Laboratory Animal Center, Taipei, Taiwan and were maintained in a temperature-controlled room on a 12-h light-dark cycle. They were housed with four per cage and had free access to food and drinking water. Mice fed with a standard diet and adapted to the environment for 1 week were subsequently divided randomly into five groups. The ND group (n=8) continued on the same diet, whereas the other four groups (n=8 per group) were switched to the HFD (494 kcal/100 g, 45% energy as fat; TestDiet Inc., USA). Among the four HFD groups, three groups started to receive CX at 10 mg/kg/day (CX10 group), CX at 30 mg/kg/day (CX30 group), and epigallocatechin gallate (EGCG) (Sigma, Inc., USA) at 30 mg/kg/day (EGCG30 group) by oral gavage. EGCG was suspended in 0.5% methylcellulose solution for oral administration. Food consumption and weight gain were measured daily and weekly, respectively. After 12 weeks, all mice were sacrificed. Serum samples, liver tissue, epididymis adipose tissue and feces were harvested for further analysis. The experimental protocol was approved by the Animal Research Committee of the National Yang Ming Chiao Tung University (IACUC no. 1091013), and all procedures followed The Guide for the Care and Use of Laboratory Animals (NIH publication, 85-23, revised 1996) and the guidelines of the Animal Welfare Act, Taiwan. The procedure regarding blood glucose and intraperitoneal glucose tolerance test (IPGTT) is as follows. After a 16 h overnight fasting period, whole-blood glucose was measured with a glucose analyzer ([…], Taiwan). An enzymatic assay was used to measure the serum insulin concentration (Cisbio, USA). Intraperitoneal glucose tolerance tests (IPGTTs) were performed in all mice 12 weeks after the start of the study. Mice fasted for 16 h were injected intraperitoneally with glucose 1.0 g/kg body weight, blood glucose levels were measured in tail vain blood at 0, 30, 60, 90, 120 and 150 min.

[2] = system: adipose triglyceride lipase (ATGL); assay: Western blot analysis, ATGL expression in OA-induced HuS-E/2 cells; format: cell-based, human; details: CX at 50-400 μM, 0.1 mM OA-induced HuS-E/2 cells
Source text: (§1) The procedure regarding Western blot analysis is as follows. For western blot analysis, an equal amount of protein from each sample was resolved by sodium dodecyl sulfate polyacrylamide gel electrophoresis (SDS-PAGE) and then transferred to polyvinylidene fluoride (PVDF) membranes. Primary antibodies against AMPK (Cat. GTX103487), adipose triglyceride lipase (ATGL) (Cat. GTX109941), carnitine palmitoyl-transferase 1 (CPT1) (Cat. GTX114337), and β-actin (Cat. GTX109639) were from GeneTex (Taiwan), and those against pAMPK (Cat. AP0432), phospho acetyl-CoA carboxylase (pACC) (Cat. AP0298), ACC (Cat. A15606), and fatty acid synthase (FAS) (Cat. A21182) was from ABclonal (China). Horseradish peroxidase (HRP)-conjugated secondary antibodies were from Jackson ImmunoResearch Laboratories, Inc., USA. WesternBright® ECL kits (Advansta Inc., USA) were used for protein visualization. Levels of protein expression were quantified by densitometric analyses.

[3] = system: HFD-induced obese C57BL/6J mice; assay: Fat deposition (eWAT) and serum lipid levels in HFD-induced obese mice; format: in vivo; details: 12 weeks oral; for HFD-induced increase in the mass of eWAT / serum LDL-C / serum HDL cholesterol (HDL-C) / serum total cholesterol (TC) / serum triglyceride (TG): HFD mice; for HFD-induced increase in the mass of eWAT: CX 10 and 30 mg/kg/day, EGCG 30 mg/kg/day; for serum LDL-C: calculated as (TC)-(HDL-C)-(TG/5); for serum HDL cholesterol (HDL-C) / serum total cholesterol (TC) / serum triglyceride (TG): vs HFD group; for adipocyte diameters: compared with the HFD group
Source text: The animals used in the examples are described below. 5-week-old male C57BL/6J mice were purchased from The National Laboratory Animal Center, Taipei, Taiwan and were maintained in a temperature-controlled room on a 12-h light-dark cycle. They were housed with four per cage and had free access to food and drinking water. Mice fed with a standard diet and adapted to the environment for 1 week were subsequently divided randomly into five groups. The ND group (n=8) continued on the same diet, whereas the other four groups (n=8 per group) were switched to the HFD (494 kcal/100 g, 45% energy as fat; TestDiet Inc., USA). Among the four HFD groups, three groups started to receive CX at 10 mg/kg/day (CX10 group), CX at 30 mg/kg/day (CX30 group), and epigallocatechin gallate (EGCG) (Sigma, Inc., USA) at 30 mg/kg/day (EGCG30 group) by oral gavage. EGCG was suspended in 0.5% methylcellulose solution for oral administration. Food consumption and weight gain were measured daily and weekly, respectively. After 12 weeks, all mice were sacrificed. Serum samples, liver tissue, epididymis adipose tissue and feces were harvested for further analysis. The experimental protocol was approved by the Animal Research Committee of the National Yang Ming Chiao Tung University (IACUC no. 1091013), and all procedures followed The Guide for the Care and Use of Laboratory Animals (NIH publication, 85-23, revised 1996) and the guidelines of the Animal Welfare Act, Taiwan. The procedure regarding immunohistochemical tissue characterization is as follows. During dissection of the mice, epididymis adipose tissue and liver were isolated, weighed, and subsequently fixed in 10% paraformaldehyde in PBS. After overnight fixation, tissues were embedded in paraffin for hematoxylin and eosin (H&E) staining. All specimens were observed microscopically (Carl Zeiss Inc., Germany) at 200× magnification. […] The procedure regarding biochemical characterization is as follows. The serum triglyceride (TG), total cholesterol (TC), high-density lipoprotein-cholesterol (HDL-C), glutamic oxaloacetic transaminase (GOT), glutamic pyruvic transaminase (GPT), albumin (ALB), uric acid (UA), and creatinine (CRE) levels were measured using enzymatic assay kits with a FUJI DRI-CHEM analyzer (Fujifilm, Tokyo, Japan). The LDL-C level was calculated as [(TC)-(HDL-C)-(TG/5)].

[4] = system: adenosine 5′-monophosphate-activated protein kinase (AMPK); assay: Western blot analysis, AMPK phosphorylation in OA-induced HuS-E/2 cells; format: cell-based, human; details: CX at 100-400 μM, 0.1 mM OA-induced HuS-E/2 cells
Source text: as §1

Row | Compound | insulin resistance index HOMA-IR ([1]; 10 mg/kg/day oral) | fasting insulin concentration (insulin expression) ([1]; 10 mg/kg/day oral) | fasting blood glucose ([1]; 10 mg/kg/day oral) | AUC of IPGTT ([1]; 10 mg/kg/day oral) | insulin resistance index HOMA-IR ([1]; 30 mg/kg/day oral) | fasting insulin concentration (insulin expression) ([1]; 30 mg/kg/day oral) | fasting blood glucose ([1]; 30 mg/kg/day oral) | AUC of IPGTT ([1]; 30 mg/kg/day oral) | ATGL expression [2] | HFD-induced increase in the mass of eWAT [3] | serum LDL-C [3] | serum HDL cholesterol (HDL-C) [3] | serum total cholesterol (TC) [3] | serum triglyceride (TG) [3] | adipocyte diameters [3] | AMPK phosphorylation [4]
1 | COc1ccc2[nH]c(=O)oc2c1 [CX, 6-methoxybenzoxazolinone] | significantly lower | significantly lower than that of the HFD group | stable and significantly lower than the HFD group | significantly decreased | significantly lower | significantly lower than that of the HFD group | stable and significantly lower than the HFD group | significantly decreased | increased ATGL expression substantially | ameliorated | somewhat ameliorated | did not differ significantly from the HFD group | significantly lower than the HFD group | significantly lower than the HFD group | lower cell diameters and smaller cell size | marked increase
2 | O=C(O[C@@H]1Cc2c(O)cc(O)cc2O[C@@H]1c1cc(O)c(O)c(O)c1)c1cc(O)c(O)c(O)c1 [EGCG, epigallocatechin gallate, reference compound] | – | – | – | – | – | – | stable and significantly lower than the HFD group | – | – | ameliorated | somewhat ameliorated | did not differ significantly from the HFD group | significantly lower than the HFD group | significantly lower than the HFD group | lower cell diameters and smaller cell size | –
